Test: LC-MS/MS analysis of natamycin and mycosamine in heated ice tea sample
Format: physicochemical
Conditions: 10 ppm natamycin at t=0, heated at 70° C.
Procedure: For the analysis of mycosamine at low concentrations (ppb level) a sample preparation is used with a cation exchange SPE material to isolate mycosamine from the sample matrix and/or remove possible interfering impurities therefrom. The analysis was performed on LC-MS/MS on a ZIC-HILIC column. For the identification and (semi) quantification a reference of mycosamine was prepared. The concentration of mycosamine in this reference was determined with ^1H-NMR.

Measured: mycosamine found in sample

C[C@@H](O)[C@@H](O)[C@H](N)[C@H](O)C=O [mycosamine]
2 mg/L: Example 1 ice tea sample (pH 3.15) | Example 2 ice tea sample | Example 3 ice tea sample
